We go through 10 compounds from patent publication US7820623B2 (priority 2006, dated 2010).

Like-named read-outs stand apart in the source and are kept apart here. Bridge positions count the residues as written; N and C are the ends. Square brackets hold non-standard residues; d marks the D form. Peptide text beside a SMILES is read from it. 1Nal = N[C@@H](Cc1cccc2ccccc12)C(=O)O

In assay [1] the test system is thapsigargin-induced IFN-g production in human whole blood. It counts as cell-based.
The subject of assay [2] is thapsigargin-induced IL-2 production in human whole blood.
Where [3] appears, read: read-out: Analogue Activity (IC50) WB/IFNg.
The mark [4] stands for this setting: read-out: Analogue Activity (IC50) WB/IL-2.

In the case of `CC[C@H](C)[C@@H]1NC(=O)[C@H](CCCCN)NC(=O)[C@@H](NC(=O)[C@H](CCCCN)NC(=O)[C@@H](NC(=O)[C@H](CC(N)=O)NC(=O)[C@@H](NC(=O)[C@H](Cc2cccc3ccccc23)NC(=O)[C@@H](NC(=O)CN)C(C)C)[C@@H](C)CC)C(C)C)CSSC[C@@H]2NC(=O)[C@H](CCCCN)NC(=O)CNC(=O)[C@H](Cc3ccccc3)NC(=O)[C@H](CCCNC(=N)N)NC(=O)[C@H](CCSC)NC(=O)CNC(=O)[C@H](C)NC(=O)[C@H](CCCCN)NC(=O)[C@H](CCCCN)NC(=O)[C@@H]3CSSC[C@@H](C(=O)N[C@H](C(=O)N4CCC[C@H]4C(=O)N[C@@H](CCCCN)C(=O)O)[C@@H](C)O)NC(=O)[C@H](Cc4c[nH]cn4)NC(=O)[C@H](CSSC[C@H](NC(=O)[C@H](CCC(N)=O)NC(=O)[C@H](CCCNC(=N)N)NC(=O)[C@H](CO)NC1=O)C(=O)N[C@@H](CC(C)C)C(=O)N[C@@H](CCC(=O)O)C(=O)N1CCC[C@H]1C(=O)N3)NC(=O)[C@H](CCCCN)NC(=O)CNC(=O)[C@H](CC(N)=O)NC(=O)[C@H](CCSC)NC2=O` [I3Nal] (H-GV[1Nal]INVKCKISRQCLEPCKKAGMRFGKCMNGKCHCTPK-OH; disulfide 8-28, 14-33, 18-35), the figures for the IC50 in assay [1] (setting [3]) and in assay [2] (setting [4]) were 0.739 nM and 0.907 nM, respectively.
On the same counts, the results for `CC[C@H](C)[C@@H]1NC(=O)[C@H](CCCCN)NC(=O)[C@@H](NC(=O)[C@H](CCCCN)NC(=O)[C@@H](NC(=O)[C@H](CC(N)=O)NC(=O)[C@@H](NC(=O)[C@@H](NC(=O)[C@@H](NC(=O)CN)C(C)C)[C@@H](C)CC)[C@@H](C)CC)C(C)C)CSSC[C@@H]2NC(=O)[C@H](CCCCN)NC(=O)CNC(=O)[C@H](Cc3ccccc3)NC(=O)[C@H](CCCNC(=N)N)NC(=O)[C@H](CCSC)NC(=O)CNC(=O)[C@H](C)NC(=O)[C@H](CCCCN)NC(=O)[C@H](CCCCN)NC(=O)[C@@H]3CSSC[C@@H](C(=O)N[C@H](C(=O)N4CCC[C@H]4C(=O)N[C@@H](CCCCN)C(=O)O)[C@@H](C)O)NC(=O)[C@H](Cc4c[nH]cn4)NC(=O)[C@H](CSSC[C@H](NC(=O)[C@H](CCC(N)=O)NC(=O)[C@H](CCCNC(=N)N)NC(=O)[C@H](CO)NC1=O)C(=O)N[C@@H](CC(C)C)C(=O)N[C@@H](CCC(=O)O)C(=O)N1CCC[C@H]1C(=O)N3)NC(=O)[C@H](CCCCN)NC(=O)[C@H](CCC(=O)O)NC(=O)[C@H](CC(N)=O)NC(=O)[C@H](CCSC)NC2=O` [G31E] (H-GVIINVKCKISRQCLEPCKKAGMRFGKCMNEKCHCTPK-OH; disulfide 8-28, 14-33, 18-35) are 0.111 nM and 0.095 nM.
In the case of “E16K, K20D, T36Y (GVIINVKCKISRQCLKPCKDAGMRFGKCMNGKCHCYPK; Definition of Artificial Sequence: Synthetic peptide)”, the figures for the IC50 in assay [1] (read-out: WB/IFNg (IC50)) and in assay [2] (read-out: WB/IL-2 (IC50)) were 0.923 nM and 0.639 nM, respectively.
Take `CC[C@H](C)[C@H](NC(=O)[C@@H](NC(=O)CN)C(C)C)C(=O)N[C@H](C(=O)N[C@@H](CC(N)=O)C(=O)N[C@H](C(=O)N[C@@H](CCCCN)C(=O)N[C@H]1CSSC[C@@H]2NC(=O)[C@H](CCCCN)NC(=O)CNC(=O)[C@H](Cc3ccccc3)NC(=O)[C@H](CCCNC(=N)N)NC(=O)[C@H](CCSC)NC(=O)CNC(=O)[C@H](C)NC(=O)[C@H](CCCCN)NC(=O)[C@H](CCCCN)NC(=O)[C@@H]3CSSC[C@@H](C(=O)N[C@H](C(=O)N4CCC[C@H]4C(=O)N[C@@H](CCCCN)C(=O)O)[C@@H](C)O)NC(=O)[C@H](Cc4c[nH]cn4)NC(=O)[C@H](CSSC[C@H](NC(=O)[C@H](CCC(N)=O)NC(=O)[C@H](CCCNC(=N)N)NC(=O)[C@H](CO)NC(=O)[C@H](C)NC(=O)[C@H](CCCCN)NC1=O)C(=O)N[C@@H](CC(C)C)C(=O)N[C@@H](CCC(=O)O)C(=O)N1CCC[C@H]1C(=O)N3)NC(=O)[C@H](CCCCN)NC(=O)CNC(=O)[C@H](CC(N)=O)NC(=O)[C@H](CCSC)NC2=O)C(C)C)[C@@H](C)CC` [I10A] (H-GVIINVKCKASRQCLEPCKKAGMRFGKCMNGKCHCTPK-OH; disulfide 8-28, 14-33, 18-35): the values for the IC50 in assay [1] (setting [3]) and in assay [2] (setting [4]) were 0.0296 nM and 0.05 nM, respectively.
With “GVIINVACKISRQCLEPCKKAGMRFGKCMNGKCHCTPK [Ala-7 (SEQ ID No: 1406)]”, the IC50 turned out to be 0.0591 nM in assay [1] (read-out: Average IC50 IFNg) and 0.0675 nM in assay [2] (read-out: Average IC50 IL-2).
On the same counts, the results for “GVIINAKCKISRQCLEPCKKAGMRFGKCMNGKCHCTPK [Ala-6 (SEQ ID No: 1405)]” are 0.0805 nM and 0.0733 nM.
For `CC[C@H](C)[C@H](NC(=O)[C@@H](NC(=O)CN)C(C)C)C(=O)N[C@H](C(=O)N[C@@H](CC(N)=O)C(=O)N[C@H](C(=O)N[C@@H](CCCCN)C(=O)N[C@H]1CSSC[C@@H]2NC(=O)[C@H](CCCCN)NC(=O)CNC(=O)[C@H](Cc3ccccc3)NC(=O)[C@H](CCCNC(=N)N)NC(=O)[C@H](CCSC)NC(=O)CNC(=O)[C@H](C)NC(=O)[C@H](CCCCN)NC(=O)[C@H](CCCCN)NC(=O)[C@@H]3CSSC[C@@H](C(=O)N[C@H](C(=O)N4CCC[C@H]4C(=O)N[C@@H](CCCCN)C(=O)O)[C@@H](C)O)NC(=O)[C@H](Cc4c[nH]cn4)NC(=O)[C@H](CSSC[C@H](NC(=O)[C@H](CCC(N)=O)NC(=O)[C@H](CCCNC(=N)N)NC(=O)[C@H](CO)NC(=O)[C@H](CCCNC(=N)N)NC(=O)[C@H](CCCCN)NC1=O)C(=O)N[C@@H](CC(C)C)C(=O)N[C@@H](CCC(=O)O)C(=O)N1CCC[C@H]1C(=O)N3)NC(=O)[C@H](CCCCN)NC(=O)CNC(=O)[C@H](CC(N)=O)NC(=O)[C@H](CCSC)NC2=O)C(C)C)[C@@H](C)CC` [I10R] (H-GVIINVKCKRSRQCLEPCKKAGMRFGKCMNGKCHCTPK-OH; disulfide 8-28, 14-33, 18-35), the IC50 in assay [1] (setting [3]) was 0.474 nM; in assay [2] (setting [4]), 0.307 nM.
For `CC[C@H](C)[C@@H]1NC(=O)[C@H](CCCCN)NC(=O)[C@@H](NC(=O)[C@H](CCCCN)NC(=O)[C@@H](NC(=O)[C@H](CC(N)=O)NC(=O)[C@@H](NC(=O)[C@@H](NC(=O)[C@@H](NC(=O)CN)C(C)C)[C@@H](C)CC)[C@@H](C)CC)C(C)C)CSSC[C@@H]2NC(=O)[C@H](CCCCN)NC(=O)CNC(=O)[C@H](Cc3ccccc3)NC(=O)[C@H](CCCNC(=N)N)NC(=O)[C@H](CCSC)NC(=O)[C@H](CCCNC(=N)N)NC(=O)[C@H](C)NC(=O)[C@H](CCCCN)NC(=O)[C@H](CCCCN)NC(=O)[C@@H]3CSSC[C@@H](C(=O)N[C@H](C(=O)N4CCC[C@H]4C(=O)N[C@@H](CCCCN)C(=O)O)[C@@H](C)O)NC(=O)[C@H](Cc4c[nH]cn4)NC(=O)[C@H](CSSC[C@H](NC(=O)[C@H](CCC(N)=O)NC(=O)[C@H](CCCNC(=N)N)NC(=O)[C@H](CO)NC1=O)C(=O)N[C@@H](CC(C)C)C(=O)N[C@@H](CCC(=O)O)C(=O)N1CCC[C@H]1C(=O)N3)NC(=O)[C@H](CCCCN)NC(=O)CNC(=O)[C@H](CC(N)=O)NC(=O)[C@H](CCSC)NC2=O` [G22R] (H-GVIINVKCKISRQCLEPCKKARMRFGKCMNGKCHCTPK-OH; disulfide 8-28, 14-33, 18-35), in that order: 0.349 nM and 0.292 nM.
For `CC[C@H](C)[C@@H]1NC(=O)[C@H](CCCCN)NC(=O)[C@@H](NC(=O)[C@H](CCCCN)NC(=O)[C@@H](NC(=O)[C@H](CC(N)=O)NC(=O)[C@@H](NC(=O)[C@@H](NC(=O)[C@@H](NC(=O)CN)C(C)C)[C@@H](C)CC)[C@@H](C)CC)C(C)C)CSSC[C@@H]2NC(=O)[C@H](CCCCN)NC(=O)CNC(=O)[C@H](Cc3ccccc3)NC(=O)[C@H](CCCNC(=N)N)NC(=O)[C@H](CCSC)NC(=O)CNC(=O)[C@H](C)NC(=O)[C@H](CCCCN)NC(=O)[C@H](CCCCN)NC(=O)[C@@H]3CSSC[C@@H](C(=O)N[C@H](C(=O)N4CCC[C@H]4C(=O)N[C@@H](CCCCN)C(=O)O)[C@@H](C)O)NC(=O)[C@H](Cc4c[nH]cn4)NC(=O)[C@H](CSSC[C@H](NC(=O)[C@H](CCC(N)=O)NC(=O)[C@H](CCCNC(=N)N)NC(=O)[C@H](CO)NC1=O)C(=O)N[C@@H](CC(C)C)C(=O)N[C@@H](Cc1cccc4ccccc14)C(=O)N1CCC[C@H]1C(=O)N3)NC(=O)[C@H](CCCCN)NC(=O)CNC(=O)[C@H](CC(N)=O)NC(=O)[C@H](CCSC)NC2=O` [E16Nal] (H-GVIINVKCKISRQCL[1Nal]PCKKAGMRFGKCMNGKCHCTPK-OH; disulfide 8-28, 14-33, 18-35), in that order: 1.51 nM and 1.02 nM.
On the same counts, the results for `CC[C@H](C)[C@@H]1NC(=O)[C@H](C)NC(=O)[C@@H](NC(=O)[C@H](CCCCN)NC(=O)[C@@H](NC(=O)[C@H](CC(N)=O)NC(=O)[C@@H](NC(=O)[C@@H](NC(=O)[C@@H](NC(=O)CN)C(C)C)[C@@H](C)CC)[C@@H](C)CC)C(C)C)CSSC[C@@H]2NC(=O)[C@H](CCCCN)NC(=O)CNC(=O)[C@H](Cc3ccccc3)NC(=O)[C@H](CCCNC(=N)N)NC(=O)[C@H](CCSC)NC(=O)CNC(=O)[C@H](C)NC(=O)[C@H](CCCCN)NC(=O)[C@H](CCCCN)NC(=O)[C@@H]3CSSC[C@@H](C(=O)N[C@H](C(=O)N4CCC[C@H]4C(=O)N[C@@H](CCCCN)C(=O)O)[C@@H](C)O)NC(=O)[C@H](Cc4c[nH]cn4)NC(=O)[C@H](CSSC[C@H](NC(=O)[C@H](CCC(N)=O)NC(=O)[C@H](CCCNC(=N)N)NC(=O)[C@H](CO)NC1=O)C(=O)N[C@@H](CC(C)C)C(=O)N[C@@H](CCC(=O)O)C(=O)N1CCC[C@H]1C(=O)N3)NC(=O)[C@H](CCCCN)NC(=O)CNC(=O)[C@H](CC(N)=O)NC(=O)[C@H](CCSC)NC2=O` [K9A] (H-GVIINVKCAISRQCLEPCKKAGMRFGKCMNGKCHCTPK-OH; disulfide 8-28, 14-33, 18-35) are 0.0711 nM and 0.0796 nM.
